Reference: EP4817428A1, “SWEETNESS ENHANCER CONTAINING ERGOTHIONEINE AS ACTIVE INGREDIENT, AND FOOD OR BEVERAGE PRODUCT CONTAINING SAME” (Kikkoman Corporation, priority 2023, dated 2025)
Where two headings read alike, the source gives them in different places.

Legend:
[1] = assay type: in vivo; conditions: amazake
Method: (§1) Evaluation results of sweetness of test product compared with control • ∘: Sweetness was enhanced compared to the control. • ◇: Sweetness was similar to that of the control.
1,250 g of white rice was soaked in water overnight, transferred to a colander, and drained for 2 hours. Thereafter, the rice was wrapped in a Tetoron cloth and steamed at 100°C for 40 minutes. The steamed rice was cooled to 45°C, and a seed koji was inoculated. The rice was wrapped in a Pylen cloth, and koji-making was started under the conditions of 35°C and 95% humidity. 19 hours after the start of koji-making, the rice koji was loosened and wrapped again in the Pylen cloth. When the product temperature reached 40°C, the Pylen cloth was spread and the rice koji was leveled. After another 40 hours, the rice koji was well loosened and left to stand again. After 42 hours, the koji was taken out. […]
The sweetness of the amazake was sensorially evaluated by an expert panel consisting of five trained sweetness-sensitive subjects.
Pairs combining amazake containing ERG at different concentrations shown in Table 19 (ERG12 to 345) were presented to the expert panel of five, and the panelists evaluated which sample of the presented pair was perceived to be sweeter by a paired comparison test.

[2] = Test 1: sensory evaluation by expert panel, selection of sucrose sample of equivalent sweetness; assay type: in vivo; conditions: 2% sucrose sample containing 60 ppm ERG; all the five panelists
Method: Sucrose was added to pure water to prepare sucrose samples having six concentrations of 0%, 1%, 1.5%, 2%, 2.5%, and 3%; and as a seventh sample, a sample in which purified ergothioneine (purity: 99.5% or more, Tetrahedron) was added to 2% sucrose to a final concentration of 60 ppm was prepared.
The sweetness was evaluated by a sensory evaluation by an expert panel consisting of five trained sweetness-sensitive subjects. The panel of five experts was asked to select a sample having an equivalent sweetness from among the 1st to 6th sucrose samples (the concentration was not disclosed to the panel) regarding the sweetness of the 7th 2% sucrose sample containing 60 ppm ERG. After tasting each sample and before tasting the next sample, the mouth was completely rinsed with water at room temperature.

[3] = Test 9 (5): paired comparison test of sweetness, 10% aspartame sample; assay type: in vivo; conditions: 10% aspartame samples
Method: (§3) In the following Test 9, sensory evaluation was performed by a panel of three experts in the same paired comparison test as in Tests 3, 5, and 7.
Samples were prepared by adding ERG to a 10% aspartame sample of aspartame (Pal Sweet Slim Up Sugar, Ajinomoto Co., Inc.) to the ERG concentrations shown in Table 16 (ERG0 to 20). Pairs combining a control 10% aspartame sample and a 10% aspartame sample containing ERG at each concentration were presented, and the panel evaluated which sample of the presented pair was perceived to be sweeter by a paired comparison test.

[4] = assay type: in vivo; conditions: specially selected whole soybean soy sauce
Method: as §1
Soy sauces were prepared by adding ergothioneine to a commercially available specially selected whole soybean soy sauce (Kikkoman Corporation) to addition concentrations of 10 ppm, 20 ppm, and 50 ppm (EGR10, 20, 50).
A drinking test by a panel of three experts was conducted on the soy sauce to which ERG was added at each concentration (the concentration was not disclosed to the panel), using a soy sauce to which no ergothioneine was added (ERG0) as a control, and the sweetness was sensorially evaluated by a paired comparison test.

[5] = Test 7: sensory evaluation, selection of fructose sample of equivalent sweetness; assay type: in vivo; conditions: 5% fructose sample containing 60 ppm ERG
Method: Fructose was added to pure water to prepare fructose samples having six concentrations of 0%, 4.5%, 5%, 5.25%, 5.5%, and 6%; and as a seventh sample, a sample in which ergothioneine was added to 5% fructose to a final concentration of 60 ppm was prepared.
(§2) Sweetness was sensorially evaluated by the same expert panel of five trained sweetness-sensitive subjects as in Test 1. The panel of five experts was asked to select a sample having an equivalent sweetness from among the 1st to 6th fructose samples (the concentration was not disclosed to the panel) regarding the sweetness of the 7th 5% fructose sample containing 60 ppm ERG.

[6] = assay type: in vivo
Method: Samples were prepared by adding ergothioneine to 1% to 50% sucrose solutions to final concentrations of 0 ppm, 0.05 ppm, 0.1 ppm, 0.25 ppm, and 0.5 ppm (ERG0 to 0.5 in Table 1 below; hereinafter, "ERGX" means a sample to which X ppm of ERG is added).
A drinking test by an expert panel of four, different from those in Tests 1 and 2, was conducted on 1% to 50% sucrose samples to which ERG was added at each concentration (the concentration was not disclosed to the panel), using a 1% to 50% sucrose sample to which no ergothioneine was added as a control, and sweetness was sensorially evaluated. After tasting each sample and before tasting the next sample, the mouth was completely rinsed with water at room temperature. Pairs combining the control 1% to 50% sucrose sample and the 1% to 50% sucrose sample containing ergothioneine at each concentration were presented to the expert panel, and the panel evaluated which sample of the presented pair was perceived to be sweeter by a paired comparison test.
as §1

[7] = Test 9 (2): paired comparison test of sweetness, 50% liquid sugar sample; assay type: in vivo; conditions: 50% liquid sugar samples
Method: as §3
Samples were prepared by adding ERG to a 50% liquid sugar sample of an isomerized sugar containing 55% or more of fructose (New Fructo 55 (NF55), Showa Sangyo Co., Ltd.) to the ERG concentrations shown in Table 13 (ERG0 to 20). Pairs combining a control 50% liquid sugar sample and a 50% liquid sugar sample containing ERG at each concentration were presented, and the panel evaluated which sample of the presented pair was perceived to be sweeter by a paired comparison test.

[8] = assay type: in vivo; remark: listed apart in the source
Excerpt: as §1
Pairs combining a control 50% glucose sample to which ergothioneine was not added and a 50% glucose sample containing ergothioneine at each concentration were presented to the expert panel of four, and the panel evaluated which sample of the presented pair was perceived to be sweeter by a paired comparison test.
The same test as in the 50% glucose solution of (1) described above was conducted on a 10% glucose solution using the samples (ERG0 to 20) shown in Table 6.

[9] = Test 5: sensory evaluation, selection of glucose sample of equivalent sweetness; assay type: in vivo; conditions: 15% glucose sample containing 60 ppm ERG
Method: Glucose was added to pure water to prepare glucose samples having six concentrations of 0%, 13%, 14%, 15%, 16%, and 17%; and as a seventh sample, a sample in which ergothioneine was added to 15% glucose to a final concentration of 60 ppm was prepared.
as §2, with “glucose” for “fructose”, “15% glucose” for “5% fructose”

[10] = sucrose solution of 0.5% or more and less than 1%
[11] = sucrose solution of 1% or more and less than 10%
[12] = sucrose solution of 10% or more

C[N+](C)(C)[C@@H](Cc1c[nH]c(=S)[nH]1)C(=O)[O-] [ERG, Ergothioneine]
ERG content at which all the panelists evaluated that the sweetness was enhanced [1]: ≥ 30 ppm | ERG content above which the degree of sweetness enhancement did not change ([1]; 345 ppm judged equivalent by a majority of the panelists): 145 ppm | sucrose solution of equivalent sweetness [2]: 2.5% | ERG added at which three panelists evaluated that the sweetness was enhanced [3]: ≥ 0.5 ppm | ERG having a sweetness-enhancing effect, based on the aspartame content [3]: ≥ 0.0005 % by weight | ERG added at which all the panelists evaluated that the sweetness was enhanced [4]: ≥ 10 ppm | fructose solution of equivalent sweetness ([5]; three of the five panelists): 5.5% | fructose solution of equivalent sweetness ([5]; two of the five panelists): 5.25% | ERG added at which all evaluated that the sweetness was enhanced [6, 10]: ≥ 0.5 ppm | amount of ERG having a sweetness-enhancing effect relative to the sucrose content [6, 10]: ≥ 0.01 % by weight | ERG added at which all evaluated that the sweetness was enhanced [6, 11]: ≥ 0.25 ppm | amount of ERG having a sweetness-enhancing effect relative to the sucrose content [6, 11]: ≥ 0.0025 % by weight | ERG added at which all evaluated that the sweetness was enhanced [6, 12]: ≥ 0.1 ppm | amount of ERG having a sweetness-enhancing effect relative to the sucrose content [6, 12]: ≥ 0.0001 % by weight | ERG added at which all the panelists evaluated that the sweetness was enhanced [7]: ≥ 0.5 ppm | ERG concentration at which the sweetness-enhancing effect became constant ([8]; 10% glucose): 60 ppm | ERG added at which all the panelists evaluated that the sweetness was enhanced ([8]; 10% glucose solution): ≥ 0.5 ppm | ERG having a sweetness-enhancing effect, based on the glucose content ([8]; 10% glucose solution): ≥ 0.0005 % by weight | glucose solution of equivalent sweetness ([9]; three of the five panelists): 16% | glucose solution of equivalent sweetness ([9]; two of the five panelists): 17%
